Broadly, the mass density is the mass of a sample divided by its volume.

± gives the expanded uncertainty stated by the source.

For one data set the following is noted: 293.15 K; 101.33 kPa; Liquid; Pycnometric method.
As for `Clc1ccccc1` [chlorobenzene], the mass density came to 1106 ± 6.3 kg/m3.
With `CN(C)C=O` [dimethylformamide], the mass density is listed as 948.7 ± 5.9 kg/m3.

Staying with this data set, now noted: 298.15 K; 101.33 kPa; Liquid; Pycnometric method.
For `Cc1ccccc1C` [1,2-dimethylbenzene], the mass density was determined as 875.9 ± 5.8 kg/m3.
The same measure, in the same setting: the figure for `CC#N` [acetonitrile] is 776.5 ± 1.2 kg/m3; for `C=CC#N` [acrylonitrile] it is 800.3 ± 5.7 kg/m3.
On the same count and under the same terms, the value for `Nc1ccccc1` [aniline] was 1017.3 ± 6.1 kg/m3; that for `CCCCCCO` [hexan-1-ol] was 815.3 ± 1.2 kg/m3.
Regarding `O=[N+]([O-])c1ccccc1` [nitrobenzene], the mass density is reported as 1198 ± 6.5 kg/m3.

The values are drawn from the NIST ThermoML archive (doi:10.1016/j.fluid.2010.08.010).
